Laboratory results taken from patent US20240066018A1 (priority 2022, published 2024).

How the values were obtained:
[1] = system: primary colon cancer samples from patients with high M3 receptor expression grown as organoids
[2] = patients with irritable bowel syndrome; cited from earlier work

For `c1ccc(C(O[C@@H]2CCCN(CCc3ccc4c(c3)OCO4)C2)c2ccccc2)cc1` [zamifenacin], the Organoid growth [1] is given as “inhibited” and the Colonic motor activity [2] is given as “reduce colonic motor activity”.
